According to patent US20050119276A1, “Methods of treating inflammatory bowel disease using NF-kB inhibitors” (Wyeth, priority 2003, published 2005):
One block for each compound: values may come before it.

Columns and labels:
[1] = tested on: immature female rats; assay: Effect on uterine wet weights in immature female rats; type: in vivo, rat
Method: Animals were treated once per day by gavage for three days. Following euthanasia on day four (24 h after the last dose) the uteri were removed, stripped of remaining fat and mesentery and weighed. The dose of the compound of example 3 chosen (50 mg/kg) was 500 fold higher than the efficacious dose in the above experiments.

[2] = tested on: HLA-B27 rats; assay: Stool character in the HLA rat standard pharmacological test procedure; type: in vivo
Method: (§1) A representative NF-kB selective ER ligand was evaluated in the HLA rat standard pharmacological test procedure, which emulates inflammatory bowel disease in humans. The following briefly describes the procedure used and results obtained. Male HLA-B27 rats were obtained from Taconic and provided unrestricted access to a food (PMI Lab diet 5001) and water. At the start of the study, rats were 22-26 weeks old.
(§2) Rats were dosed orally once per day for 5 days with one of the regimens listed below. There were five rats in each group and the last dose was administered two hours before euthanasia. • vehicle (50% DMSO/50% Dulbecco's PBS) • 17α-ethinyl-17β-estradiol (EE, 10 μg/kg) • Compound A (150 μg/kg) • Compound A (50 μg/kg) • Compound A (1.5 μg/kg) Stool quality was observed daily and graded according to the following scale: Diarrhea=3; soft stool=2; normal stool=1. At the end of the study, serum was collected and stored at −70° C. A section of colon was prepared for histological analysis and an additional segment was analyzed for myeloperoxidase activity.

[3] = tested on: HLA-B27 rats; assay: Histological scoring of disease severity in the colon of HLA-B27 rats; type: in vivo, rat; conditions: for Fibrosis (0-2) / Inflammation (0-3) / Lesion depth (0-2) / Total score / Ulceration (0-2): histological score, colon
Method: as §1, §2
Histological analysis. Colonic tissue was immersed in 10% neutral buffered formalin. Each specimen of colon was separated into four samples for evaluation. The formalin-fixed tissues were processed in a Tissue Tek vacuum infiltration processor (Miles, Inc; West Haven, Conn.) for paraffin embedding. The samples were sectioned at 5 μm and then stained with hematoxylin and eosin (H&E) for blinded histologic evaluations using a scale modified after Boughton-Smith. Sections of colonic tissue were evaluated for several disease indicators and given relative scores. After the scores were completed the samples were unblinded, and data were tabulated and analyzed by ANOVA linear modeling with multiple mean comparisons.

[4] = tested on: HLA-B27 rats; assay: Myeloperoxidase activity in colon of HLA-B27 rats (neutrophil infiltration); type: in vivo, rat
Method: as §1
Rats were dosed orally once per day for 5 days with one of the regimens listed below. […] A section of colon was prepared for histological analysis and an additional segment was analyzed for myeloperoxidase activity.
Myeloperoxidase activity [Bradley, et al., Blood 60: 618-622 (1982)]. Myeloperoxidase activity was assessed as a measure of neutrophil infiltration into the colon. […]
Tissue was resuspended and homogenized in 2.5ml (1:5 w/v) of 50 mM H2KPO4 with 10 mM EDTA and 0.5% Hex Ammonium Bromide to help solubilize the intracellular MPO. […] The supernatant was analyzed following these steps.
The test mixture was prepared by adding 2.9 ml of 50 mM H2KPO4 with 0.167 O-Dianisidine/ml with 0.0005% H2O2 into a reaction tube. […] OD was measured every 2 minutes reaction time at 460 nm against a blank containing 2.9 ml of the reaction mixture and 100 μl of the 0.5% ammonium bromide solution. […]

[5] = 1.5 mcg/kg orally once per day for 5 days
[6] = 50 mcg/kg orally once per day for 5 days
[7] = 150 mcg/kg orally once per day for 5 days

Uterine wet weight ([1]; 1.5 μg/kg (EC80)): significantly stimulated
SMILES: C#C[C@]1(O)CC[C@H]2[C@@H]3CCc4cc(O)ccc4[C@H]3CC[C@@]21C [17α-ethinylestradiol, 17α-ethinyl-17β-estradiol, reference compound]

Uterine wet weight ([1]; 50 mg/kg orally once per day for three days): no increase
melting point: 188 °C
SMILES: CC1c2cc(F)ccc2-c2ccccc2N1S(=O)(=O)c1ccc(O)cc1 (centres unmarked) [Example 3, 4-[(8-Fluoro-6-methylphenanthridin-5(6H)-yl)sulfonyl]phenol]
Stool score ([2]; 1.5 μg/kg oral): No effect
Stool score ([2]; 50 μg/kg oral): No effect
Stool score ([2]; 150 μg/kg oral, after 4 days of treatment): improvement in stool score
All disease parameters measured (ulcerations, lesions, fibrosis, inflammatory cells), colon histology ([3]; 50 μg/kg oral): significantly improved
All disease parameters measured (ulcerations, lesions, fibrosis, inflammatory cells), colon histology ([3]; 150 μg/kg oral): significantly improved
Fibrosis (0-2) [3, 5]: 0.94 ± 0.52
Inflammation (0-3) [3, 5]: 2.50 ± 0.35
Lesion depth (0-2) [3, 5]: 1.1 ± 0.35
Total score [3, 5]: 5.75 ± 1.41
Ulceration (0-2) [3, 5]: 1.25 ± 0.24
Fibrosis (0-2) [3, 6]: 0.38 ± 0.32
Inflammation (0-3) [3, 6]: 1.69 ± 0.52
Lesion depth (0-2) [3, 6]: 0.56 ± 0.24
Total score [3, 6]: 3.25 ± 1.0
Ulceration (0-2) [3, 6]: 0.63 ± 0.25
Fibrosis (0-2) [3, 7]: 0.19 ± 0.24
Inflammation (0-3) [3, 7]: 1.50 ± 0.20
Lesion depth (0-2) [3, 7]: 0.31 ± 0.24
Total score [3, 7]: 2.38 ± 0.83
Ulceration (0-2) [3, 7]: 0.38 ± 0.32
MPO activity in colon ([4]; 150 μg/kg oral): effectively inhibit MPO activity
MPO activity in colon ([4]; the lower doses (50 and 1.5 μg/kg) oral): no effect

melting point: 186 to 188 °C
SMILES: COc1cc(OC)cc(N2CCN(C(=O)[C@](C)(C#N)[C@H](c3ccccc3OC)c3cccc4ccccc34)CC2)c1 [Example 4, (S)-3-[4-(3,5-dimethoxyphenyl)piperazin-1-yl]-2-[(S)-(2-methoxyphenyl)(1-naphthyl)methyl]-2-methyl-3-oxopropanenitrile]
